# Source: ChEMBL document CHEMBL3885881, “DrugMatrix”
# Species on record: Rattus norvegicus
# Test: DrugMatrix - Regimen: Daily Repeat
# Format: toxicity, organism-based, Sprague-Dawley
# Design: regimen Daily Repeat, gender Male, age 6-8 weeks
# Conditions: in vivo, po, route oral GAVAGE, […]; for ABSOLUTE BASOPHIL / ABSOLUTE EOSINOPHIL / ABSOLUTE LYMPHOCYTE / ABSOLUTE MONOCYTE / ABSOLUTE SEGMENTED NEUTROPHIL / BASOPHIL / EOSINOPHIL / ERYTHROCYTE COUNT / HEMATOCRIT / HEMOGLOBIN / LEUKOCYTE COUNT / LYMPHOCYTE / MEAN CORPUSCULAR HEMOGLOBIN / MEAN CORPUSCULAR HEMOGLOBIN CONCENTRATION / MEAN CORPUSCULAR VOLUME / MONOCYTE / NEUTROPHIL / NUCLEATED RED BLOOD CELLS / PLATELET COUNT: tissue Blood; for ALANINE AMINOTRANSFERASE / ALBUMIN / ALKALINE PHOSPHATASE / ASPARTATE AMINOTRANSFERASE / BLOOD UREA NITROGEN / CARBON DIOXIDE / CHLORIDE / CHOLESTEROL / CREATINE PHOSPHOKINASE / CREATININE / GLUCOSE / LACTATE DEHYDROGENASE / LIPASE / PHOSPHORUS / POTASSIUM / SODIUM / TOTAL BILIRUBIN / URIC ACID / TOTAL PROTEIN: tissue Plasma
# [1] = 0.3 mg/kg, 120 h, dose level Low, time 5 day
# [2] = 150 mg/kg, 72 h, dose level High, time 3 day
# [3] = 150 mg/kg, 120 h, dose level High, time 5 day
smiles,measurement,setting,value
C[C@]12CC[C@@H]3c4ccc(O)cc4CC[C@H]3[C@@H]1CC[C@@H]2O [ESTRADIOL],ABSOLUTE BASOPHIL,[1],0 CELLS/uL
same,ABSOLUTE EOSINOPHIL,[1],0 CELLS/uL
same,ABSOLUTE LYMPHOCYTE,[1],8421.33 CELLS/uL
same,ABSOLUTE MONOCYTE,[1],178.67 CELLS/uL
same,ABSOLUTE SEGMENTED NEUTROPHIL,[1],333.33 CELLS/uL
same,BASOPHIL,[1],0%
same,EOSINOPHIL,[1],0%
same,ERYTHROCYTE COUNT,[1],5.67 x10E6/uL
same,HEMATOCRIT,[1],36.43%
same,HEMOGLOBIN,[1],14.13 G/DL
same,LEUKOCYTE COUNT,[1],8.93 x10E3/uL
same,LYMPHOCYTE,[1],94.33%
same,MEAN CORPUSCULAR HEMOGLOBIN,[1],24.93 pg
same,MEAN CORPUSCULAR HEMOGLOBIN CONCENTRATION,[1],38.77 G/DL
same,MEAN CORPUSCULAR VOLUME,[1],64.2 fL
same,MONOCYTE,[1],2%
same,NEUTROPHIL,[1],3.67%
same,NUCLEATED RED BLOOD CELLS,[1],0 /100WBC
same,PLATELET COUNT,[1],1136.67 x10E3/uL
same,ALANINE AMINOTRANSFERASE,[1],62 u/L
same,ALBUMIN,[1],4.23 G/DL
same,ALKALINE PHOSPHATASE,[1],381.67 u/L
same,ASPARTATE AMINOTRANSFERASE,[1],80.33 u/L
same,BLOOD UREA NITROGEN,[1],11 mg/dL
same,CARBON DIOXIDE,[1],31.67 mmol/L
same,CHLORIDE,[1],97 MEQ/L
same,CHOLESTEROL,[1],52.67 mg/dL
same,CREATINE PHOSPHOKINASE,[1],324.67 u/L
same,CREATININE,[1],0.15 mg/dL
same,GLUCOSE,[1],162.67 mg/dL
same,LACTATE DEHYDROGENASE,[1],166.67 u/L
same,LIPASE,[1],10.33 u/L
same,PHOSPHORUS,[1],9.63 mg/dL
same,POTASSIUM,[1],5.76 MEQ/L
same,SODIUM,[1],143 MEQ/L
same,TOTAL BILIRUBIN,[1],0.2 mg/dL
same,URIC ACID,[1],0.43 mg/dL
same,ABSOLUTE BASOPHIL,[2],0 CELLS/uL
same,ABSOLUTE EOSINOPHIL,[2],0 CELLS/uL
same,ABSOLUTE LYMPHOCYTE,[2],6738.33 CELLS/uL
same,ABSOLUTE MONOCYTE,[2],100.67 CELLS/uL
same,ABSOLUTE SEGMENTED NEUTROPHIL,[2],527.67 CELLS/uL
same,BASOPHIL,[2],0%
same,EOSINOPHIL,[2],0%
same,ERYTHROCYTE COUNT,[2],5.96 x10E6/uL
same,HEMATOCRIT,[2],36.23%
same,HEMOGLOBIN,[2],13.83 G/DL
same,LEUKOCYTE COUNT,[2],7.37 x10E3/uL
same,LYMPHOCYTE,[2],91.67%
same,MEAN CORPUSCULAR HEMOGLOBIN,[2],23.37 pg
same,MEAN CORPUSCULAR HEMOGLOBIN CONCENTRATION,[2],38.27 G/DL
same,MEAN CORPUSCULAR VOLUME,[2],61 fL
same,MONOCYTE,[2],1.33%
same,NEUTROPHIL,[2],7%
same,NUCLEATED RED BLOOD CELLS,[2],0 /100WBC
same,PLATELET COUNT,[2],934 x10E3/uL
same,ALANINE AMINOTRANSFERASE,[2],64.33 u/L
same,ALBUMIN,[2],3.8 G/DL
same,ALKALINE PHOSPHATASE,[2],760.67 u/L
same,ASPARTATE AMINOTRANSFERASE,[2],90 u/L
same,BLOOD UREA NITROGEN,[2],10 mg/dL
same,CARBON DIOXIDE,[2],33 mmol/L
same,CHLORIDE,[2],100 MEQ/L
same,CHOLESTEROL,[2],22.67 mg/dL
same,CREATINE PHOSPHOKINASE,[2],373.33 u/L
same,CREATININE,[2],0.22 mg/dL
same,GLUCOSE,[2],140.33 mg/dL
same,LACTATE DEHYDROGENASE,[2],223.67 u/L
same,LIPASE,[2],12.33 u/L
same,PHOSPHORUS,[2],8.83 mg/dL
same,SODIUM,[2],145.57 MEQ/L
same,TOTAL BILIRUBIN,[2],0.23 mg/dL
same,TOTAL PROTEIN,[2],5.87 G/DL
same,URIC ACID,[2],0.3 mg/dL
same,ABSOLUTE BASOPHIL,[3],0 CELLS/uL
same,ABSOLUTE EOSINOPHIL,[3],0 CELLS/uL
same,ABSOLUTE LYMPHOCYTE,[3],9738.33 CELLS/uL
same,ABSOLUTE MONOCYTE,[3],202.33 CELLS/uL
same,ABSOLUTE SEGMENTED NEUTROPHIL,[3],759.33 CELLS/uL
same,BASOPHIL,[3],0%
same,EOSINOPHIL,[3],0%
same,ERYTHROCYTE COUNT,[3],6.23 x10E6/uL
same,HEMATOCRIT,[3],39.2%
same,HEMOGLOBIN,[3],14.6 G/DL
same,LEUKOCYTE COUNT,[3],10.7 x10E3/uL
same,LYMPHOCYTE,[3],91%
same,MEAN CORPUSCULAR HEMOGLOBIN,[3],23.43 pg
same,MEAN CORPUSCULAR HEMOGLOBIN CONCENTRATION,[3],37.27 G/DL
same,MEAN CORPUSCULAR VOLUME,[3],62.93 fL
same,MONOCYTE,[3],2%
same,NEUTROPHIL,[3],7%
same,NUCLEATED RED BLOOD CELLS,[3],0 /100WBC
same,PLATELET COUNT,[3],1292.33 x10E3/uL
same,ALANINE AMINOTRANSFERASE,[3],55.33 u/L
same,ALBUMIN,[3],3.87 G/DL
same,ALKALINE PHOSPHATASE,[3],654.67 u/L
same,ASPARTATE AMINOTRANSFERASE,[3],67 u/L
same,BLOOD UREA NITROGEN,[3],7.67 mg/dL
same,CARBON DIOXIDE,[3],29.33 mmol/L
same,CHLORIDE,[3],99.67 MEQ/L
same,CHOLESTEROL,[3],14 mg/dL
same,CREATINE PHOSPHOKINASE,[3],271.33 u/L
same,CREATININE,[3],0.13 mg/dL
same,GLUCOSE,[3],125.67 mg/dL
same,LACTATE DEHYDROGENASE,[3],192.67 u/L
same,LIPASE,[3],7.67 u/L
same,POTASSIUM,[3],5.37 MEQ/L
same,SODIUM,[3],145.23 MEQ/L
same,TOTAL BILIRUBIN,[3],0.2 mg/dL
same,TOTAL PROTEIN,[3],6.67 G/DL
same,URIC ACID,[3],0.3 mg/dL
